Among the data in article PMC11314561, “Design and Synthesis of Novel Aminoindazole-pyrrolo[2,3-b]pyridine Inhibitors of IKKα That Selectively Perturb Cellular Non-Canonical NF-κB Signalling” (Molecules, 2024) are inhibition values, retold here.

SMILES strings stand for the structures.

Common to all, as to experiment: kinase panel
Common to all, as to format: biochemical

The target in one test is CK1δ(h) (Homo sapiens, UniProt P48730). In short, it runs like this:
(§1)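 Values are percent inhibition from kinome-wide profiling of three series compounds across 231 kinases, with a structurally similar analogue tested on only 98 selected kinases.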

A further test deals with T1, TAK1(h) (Homo sapiens, UniProt O43318).
T1 sequence (O43318 1-303 limits assumed): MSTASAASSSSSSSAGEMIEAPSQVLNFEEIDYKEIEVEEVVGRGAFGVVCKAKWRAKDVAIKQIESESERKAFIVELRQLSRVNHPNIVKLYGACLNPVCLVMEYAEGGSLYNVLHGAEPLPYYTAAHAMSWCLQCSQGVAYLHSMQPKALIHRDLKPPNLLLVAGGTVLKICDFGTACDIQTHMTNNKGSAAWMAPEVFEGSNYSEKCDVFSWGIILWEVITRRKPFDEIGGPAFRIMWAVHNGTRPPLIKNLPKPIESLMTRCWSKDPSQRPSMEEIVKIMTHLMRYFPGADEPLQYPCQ
In short, it runs like this: as §1

The next test deals with MAPK1(h) (Homo sapiens, UniProt P27361). In short, it runs like this: as §1
The next test concerns the target PAK2(h) (Homo sapiens, UniProt Q13177). In short, it runs like this:
as §1

A further test has as its target T2, Aurora-A(h) (Homo sapiens, UniProt O14965).
T2 sequence (O14965 1-403): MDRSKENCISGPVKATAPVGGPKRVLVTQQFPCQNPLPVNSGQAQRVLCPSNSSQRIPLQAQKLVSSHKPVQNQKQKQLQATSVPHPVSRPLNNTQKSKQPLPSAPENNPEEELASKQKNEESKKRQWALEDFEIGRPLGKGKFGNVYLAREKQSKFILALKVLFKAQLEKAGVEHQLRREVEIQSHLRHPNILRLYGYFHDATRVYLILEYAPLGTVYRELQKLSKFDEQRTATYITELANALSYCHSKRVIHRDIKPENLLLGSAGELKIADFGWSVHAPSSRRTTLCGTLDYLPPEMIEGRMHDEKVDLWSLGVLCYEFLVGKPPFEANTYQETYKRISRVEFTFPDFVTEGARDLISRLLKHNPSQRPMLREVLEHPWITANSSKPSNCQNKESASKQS
The method, boiled down:
as §1

A further test has as its target CDK9/cyclin T1(h) (Homo sapiens, UniProt P50750). The method, boiled down:
as §1

Another test addresses HIPK1(h) (Homo sapiens, UniProt Q86Z02). The method, boiled down: as §1
In a further test the target is mTOR(h) (Homo sapiens, UniProt P42345). The method, boiled down:
as §1

In another test the target is CaMKIIδ(h) (Homo sapiens, UniProt Q13557). The method, boiled down:
as §1

A further test addresses T3, MST2(h) (Homo sapiens, UniProt Q13188).
T3 sequence (Q13188 1-491): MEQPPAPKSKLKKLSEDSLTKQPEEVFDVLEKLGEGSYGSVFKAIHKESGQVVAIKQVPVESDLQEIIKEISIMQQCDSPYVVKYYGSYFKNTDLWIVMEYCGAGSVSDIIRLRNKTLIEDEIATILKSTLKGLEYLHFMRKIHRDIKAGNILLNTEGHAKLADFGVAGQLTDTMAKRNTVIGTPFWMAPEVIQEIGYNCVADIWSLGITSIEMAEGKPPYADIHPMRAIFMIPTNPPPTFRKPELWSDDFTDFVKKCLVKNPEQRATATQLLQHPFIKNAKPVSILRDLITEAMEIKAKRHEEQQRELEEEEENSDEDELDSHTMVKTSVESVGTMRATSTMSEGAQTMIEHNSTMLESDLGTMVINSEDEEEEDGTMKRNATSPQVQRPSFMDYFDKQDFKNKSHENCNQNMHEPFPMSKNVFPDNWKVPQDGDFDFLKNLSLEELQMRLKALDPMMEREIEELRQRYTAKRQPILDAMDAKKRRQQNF
In short, it runs like this: as §1

A further test has as its target CDK2/cyclinA(h) (Homo sapiens, UniProt P24941). The method, boiled down: as §1
A further test has as its target PDGFRβ(h) (Homo sapiens, UniProt P09619). In short, it runs like this: as §1
A further test deals with CHK2(h) (Homo sapiens, UniProt O96017). The method, boiled down:
as §1

The target in a further test is T4, ZAP-70(h) (Homo sapiens, UniProt P43403).
T4 sequence (P43403 1-619): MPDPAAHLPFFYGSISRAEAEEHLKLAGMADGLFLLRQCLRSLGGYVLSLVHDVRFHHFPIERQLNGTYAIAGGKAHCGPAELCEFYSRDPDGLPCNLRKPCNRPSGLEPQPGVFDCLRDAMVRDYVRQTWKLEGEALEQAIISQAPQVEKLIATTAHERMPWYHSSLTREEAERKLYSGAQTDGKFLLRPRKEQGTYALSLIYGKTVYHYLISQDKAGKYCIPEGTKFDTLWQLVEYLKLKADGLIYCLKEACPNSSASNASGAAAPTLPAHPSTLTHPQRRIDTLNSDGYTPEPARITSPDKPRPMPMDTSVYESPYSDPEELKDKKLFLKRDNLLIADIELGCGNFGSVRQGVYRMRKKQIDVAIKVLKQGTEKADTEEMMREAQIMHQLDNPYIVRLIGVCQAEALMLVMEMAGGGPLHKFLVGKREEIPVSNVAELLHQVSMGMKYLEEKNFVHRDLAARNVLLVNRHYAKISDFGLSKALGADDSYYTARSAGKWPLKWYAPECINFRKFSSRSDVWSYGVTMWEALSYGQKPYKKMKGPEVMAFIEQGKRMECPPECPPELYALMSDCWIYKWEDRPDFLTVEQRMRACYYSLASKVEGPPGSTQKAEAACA
The method, boiled down:
as §1

Another test concerns the target FGFR1(h) (Homo sapiens, UniProt P11362). In short, it runs like this:
as §1

A further test addresses AMPKα1(h) (Homo sapiens, UniProt Q13131). In short, it runs like this:
as §1

FGFR1(h), sequence (P11362 22-822): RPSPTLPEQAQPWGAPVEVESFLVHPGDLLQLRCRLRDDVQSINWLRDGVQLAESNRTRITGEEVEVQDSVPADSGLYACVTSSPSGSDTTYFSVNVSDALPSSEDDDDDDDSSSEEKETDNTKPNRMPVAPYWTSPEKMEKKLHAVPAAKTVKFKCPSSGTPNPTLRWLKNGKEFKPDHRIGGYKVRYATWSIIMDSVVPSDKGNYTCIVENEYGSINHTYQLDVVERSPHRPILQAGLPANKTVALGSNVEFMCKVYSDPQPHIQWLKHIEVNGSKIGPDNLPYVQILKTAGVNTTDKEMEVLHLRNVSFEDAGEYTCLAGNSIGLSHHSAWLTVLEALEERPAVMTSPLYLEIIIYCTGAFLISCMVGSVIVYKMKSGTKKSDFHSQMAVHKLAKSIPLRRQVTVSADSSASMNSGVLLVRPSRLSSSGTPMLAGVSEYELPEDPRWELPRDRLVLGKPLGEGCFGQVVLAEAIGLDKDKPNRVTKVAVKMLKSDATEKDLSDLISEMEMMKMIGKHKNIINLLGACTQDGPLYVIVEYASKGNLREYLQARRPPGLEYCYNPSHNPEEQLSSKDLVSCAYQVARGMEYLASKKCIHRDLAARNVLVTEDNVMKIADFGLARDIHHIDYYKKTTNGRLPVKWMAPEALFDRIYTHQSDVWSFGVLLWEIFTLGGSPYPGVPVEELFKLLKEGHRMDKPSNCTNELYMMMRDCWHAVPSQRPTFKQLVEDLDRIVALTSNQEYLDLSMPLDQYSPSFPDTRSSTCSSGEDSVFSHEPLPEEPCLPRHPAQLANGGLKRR
PAK2(h), sequence (Q13177 whole entry): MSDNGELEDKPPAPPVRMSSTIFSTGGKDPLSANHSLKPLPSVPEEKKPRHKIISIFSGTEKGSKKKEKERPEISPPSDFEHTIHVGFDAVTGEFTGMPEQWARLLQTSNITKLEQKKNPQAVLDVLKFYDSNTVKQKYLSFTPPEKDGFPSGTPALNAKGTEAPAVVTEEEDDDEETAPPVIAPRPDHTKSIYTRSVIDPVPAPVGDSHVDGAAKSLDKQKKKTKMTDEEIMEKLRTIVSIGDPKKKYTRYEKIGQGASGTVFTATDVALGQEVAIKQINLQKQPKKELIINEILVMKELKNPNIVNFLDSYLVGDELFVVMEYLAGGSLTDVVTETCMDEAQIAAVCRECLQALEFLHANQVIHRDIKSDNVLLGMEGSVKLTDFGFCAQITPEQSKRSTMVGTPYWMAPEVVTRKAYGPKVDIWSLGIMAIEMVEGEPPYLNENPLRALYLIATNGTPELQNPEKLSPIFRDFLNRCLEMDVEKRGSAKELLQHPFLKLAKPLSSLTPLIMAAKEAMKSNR
CHK2(h), sequence (O96017 whole entry): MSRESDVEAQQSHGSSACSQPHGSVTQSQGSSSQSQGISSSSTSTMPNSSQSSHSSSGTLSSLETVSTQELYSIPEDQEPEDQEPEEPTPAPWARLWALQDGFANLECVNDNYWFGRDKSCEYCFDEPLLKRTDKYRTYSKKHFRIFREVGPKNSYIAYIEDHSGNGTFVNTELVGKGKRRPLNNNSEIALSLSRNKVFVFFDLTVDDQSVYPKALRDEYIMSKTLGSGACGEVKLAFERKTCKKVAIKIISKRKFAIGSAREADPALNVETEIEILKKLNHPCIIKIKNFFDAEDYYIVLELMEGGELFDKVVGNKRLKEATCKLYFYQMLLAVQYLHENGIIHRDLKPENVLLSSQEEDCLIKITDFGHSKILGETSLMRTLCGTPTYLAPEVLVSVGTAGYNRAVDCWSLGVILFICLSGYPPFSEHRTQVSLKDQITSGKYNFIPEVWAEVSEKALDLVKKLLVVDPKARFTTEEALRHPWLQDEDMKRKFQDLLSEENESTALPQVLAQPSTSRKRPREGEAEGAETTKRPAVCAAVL
AMPKα1(h), sequence (Q13131 whole entry): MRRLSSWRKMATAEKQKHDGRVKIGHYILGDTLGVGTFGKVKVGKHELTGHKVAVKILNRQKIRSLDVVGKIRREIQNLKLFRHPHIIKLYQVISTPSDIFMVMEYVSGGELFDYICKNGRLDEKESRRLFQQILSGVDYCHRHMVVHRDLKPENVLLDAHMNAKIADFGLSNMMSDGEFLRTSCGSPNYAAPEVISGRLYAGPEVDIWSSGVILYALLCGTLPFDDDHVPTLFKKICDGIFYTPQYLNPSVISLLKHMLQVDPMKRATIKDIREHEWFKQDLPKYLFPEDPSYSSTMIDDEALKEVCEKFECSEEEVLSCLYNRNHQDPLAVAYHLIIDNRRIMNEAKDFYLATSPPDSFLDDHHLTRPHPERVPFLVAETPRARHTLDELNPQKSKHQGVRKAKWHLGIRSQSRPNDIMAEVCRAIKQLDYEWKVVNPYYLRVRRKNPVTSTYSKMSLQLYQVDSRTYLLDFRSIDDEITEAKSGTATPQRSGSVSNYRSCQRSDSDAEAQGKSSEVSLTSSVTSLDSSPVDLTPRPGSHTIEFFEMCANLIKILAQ
AMPKα1(h), sequence (Q9Y478 whole entry partner): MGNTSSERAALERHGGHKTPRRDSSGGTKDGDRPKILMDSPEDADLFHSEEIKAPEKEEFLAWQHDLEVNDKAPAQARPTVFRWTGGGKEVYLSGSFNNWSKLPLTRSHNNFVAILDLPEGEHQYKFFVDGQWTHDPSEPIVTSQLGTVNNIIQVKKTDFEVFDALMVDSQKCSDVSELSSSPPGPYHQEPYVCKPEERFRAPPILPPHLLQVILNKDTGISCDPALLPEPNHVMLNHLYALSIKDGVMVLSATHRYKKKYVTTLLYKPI
AMPKα1(h), sequence (P54619 whole entry partner): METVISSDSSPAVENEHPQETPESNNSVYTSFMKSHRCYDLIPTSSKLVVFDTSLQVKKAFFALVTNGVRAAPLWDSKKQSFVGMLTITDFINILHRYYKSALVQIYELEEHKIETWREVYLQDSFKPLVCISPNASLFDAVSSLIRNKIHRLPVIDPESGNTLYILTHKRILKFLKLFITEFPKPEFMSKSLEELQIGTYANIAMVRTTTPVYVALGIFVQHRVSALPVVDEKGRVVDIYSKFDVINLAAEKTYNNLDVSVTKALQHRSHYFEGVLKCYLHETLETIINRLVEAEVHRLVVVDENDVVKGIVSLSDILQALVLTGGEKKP
PDGFRβ(h), sequence (P09619 33-1106): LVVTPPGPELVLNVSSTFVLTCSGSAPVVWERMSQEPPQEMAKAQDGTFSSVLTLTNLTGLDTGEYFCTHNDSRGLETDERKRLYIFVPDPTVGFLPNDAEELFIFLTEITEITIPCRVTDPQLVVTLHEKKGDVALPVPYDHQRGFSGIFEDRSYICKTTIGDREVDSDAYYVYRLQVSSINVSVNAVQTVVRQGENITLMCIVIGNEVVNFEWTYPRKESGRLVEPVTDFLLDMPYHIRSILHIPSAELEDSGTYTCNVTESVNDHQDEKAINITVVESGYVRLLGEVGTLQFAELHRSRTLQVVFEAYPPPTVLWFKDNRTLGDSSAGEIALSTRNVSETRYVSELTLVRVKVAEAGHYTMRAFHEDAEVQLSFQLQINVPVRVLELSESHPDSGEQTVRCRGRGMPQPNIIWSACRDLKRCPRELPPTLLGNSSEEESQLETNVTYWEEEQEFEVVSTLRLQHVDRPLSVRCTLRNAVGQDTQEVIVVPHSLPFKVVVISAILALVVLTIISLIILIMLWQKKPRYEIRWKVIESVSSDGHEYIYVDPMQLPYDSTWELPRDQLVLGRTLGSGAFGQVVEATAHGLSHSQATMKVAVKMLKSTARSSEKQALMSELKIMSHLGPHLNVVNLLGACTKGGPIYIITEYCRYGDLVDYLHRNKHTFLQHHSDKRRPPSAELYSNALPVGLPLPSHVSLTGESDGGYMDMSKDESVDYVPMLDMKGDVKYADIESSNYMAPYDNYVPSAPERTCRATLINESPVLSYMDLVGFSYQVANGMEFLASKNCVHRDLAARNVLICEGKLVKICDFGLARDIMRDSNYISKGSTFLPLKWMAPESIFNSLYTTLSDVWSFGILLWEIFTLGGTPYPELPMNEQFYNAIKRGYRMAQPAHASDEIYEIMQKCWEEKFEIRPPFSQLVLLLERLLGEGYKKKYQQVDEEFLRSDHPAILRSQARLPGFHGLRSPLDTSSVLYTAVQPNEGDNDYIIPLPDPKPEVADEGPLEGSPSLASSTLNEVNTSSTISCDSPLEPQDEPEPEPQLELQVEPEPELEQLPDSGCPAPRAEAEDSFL
CaMKIIδ(h), sequence (Q13557 whole entry): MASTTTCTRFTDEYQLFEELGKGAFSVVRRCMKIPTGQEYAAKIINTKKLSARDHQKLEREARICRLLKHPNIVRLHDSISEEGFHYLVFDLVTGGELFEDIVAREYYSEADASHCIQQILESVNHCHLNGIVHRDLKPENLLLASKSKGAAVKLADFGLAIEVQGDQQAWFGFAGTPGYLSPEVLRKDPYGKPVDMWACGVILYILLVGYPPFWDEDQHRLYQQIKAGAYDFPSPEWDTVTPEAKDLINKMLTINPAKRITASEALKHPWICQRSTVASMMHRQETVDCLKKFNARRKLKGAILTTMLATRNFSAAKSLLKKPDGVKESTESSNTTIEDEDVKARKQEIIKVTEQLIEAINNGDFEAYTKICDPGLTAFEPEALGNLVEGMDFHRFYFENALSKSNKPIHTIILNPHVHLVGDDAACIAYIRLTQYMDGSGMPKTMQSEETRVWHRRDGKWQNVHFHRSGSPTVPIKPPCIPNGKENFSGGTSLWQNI
CK1δ(h), sequence (P48730 whole entry): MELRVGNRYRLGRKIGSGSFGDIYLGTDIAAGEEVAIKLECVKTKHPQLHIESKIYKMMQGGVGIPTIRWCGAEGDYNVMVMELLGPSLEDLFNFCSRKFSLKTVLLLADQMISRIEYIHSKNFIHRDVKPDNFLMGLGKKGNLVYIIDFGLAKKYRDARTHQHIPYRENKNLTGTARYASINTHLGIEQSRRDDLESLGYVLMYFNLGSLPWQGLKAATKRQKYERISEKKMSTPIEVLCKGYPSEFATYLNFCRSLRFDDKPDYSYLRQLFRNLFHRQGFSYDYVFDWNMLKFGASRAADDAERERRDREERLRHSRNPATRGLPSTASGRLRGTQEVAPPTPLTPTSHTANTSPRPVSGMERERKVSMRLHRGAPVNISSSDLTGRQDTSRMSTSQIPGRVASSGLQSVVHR

As to `Nc1n[nH]c2ccc(-c3ccnc4[nH]c(-c5ccccc5)cc34)cc12` [Compound 4], the inhibition at 1 µM amounted to 58% at CK1δ(h); 28% against TAK1(h); 46% against MAPK1(h); 18% at PAK2(h); 88% against Aurora-A(h); 98% on CDK9/cyclin T1(h). Besides, the inhibition at 1 µM on HIPK1(h) is 14%; against mTOR(h), 10%; on CaMKIIδ(h), 80%; against MST2(h) it was 5%; on CDK2/cyclinA(h) it was 99%; at PDGFRβ(h) it was 14%. The inhibition at 1 µM against CHK2(h) is 28%; against ZAP-70(h), -8%; against FGFR1(h), 84%; against AMPKα1(h) it was 23%.

As to `Nc1n[nH]c2ccc(-c3ccnc4[nH]c(-c5cccc(OCc6ccccc6)c5)cc34)cc12` [Compound 5r [SU1261]], the inhibition at 1 µM against CK1δ(h) is 14%; at TAK1(h), 6%; on MAPK1(h) it was -4%; on PAK2(h), 1%; against Aurora-A(h), 52%; against CDK9/cyclin T1(h), 98%. Besides, the inhibition at 1 µM on HIPK1(h) is -11%; against mTOR(h), 8%; against CaMKIIδ(h) it was 61%; against MST2(h), -1%; on CDK2/cyclinA(h), 61%; against PDGFRβ(h), 1%. The inhibition at 1 µM was 13% on CHK2(h), -27% against ZAP-70(h), 64% against FGFR1(h) and -7% against AMPKα1(h).

For the compound `Nc1n[nH]c2ccc(-c3ccnc4[nH]c(-c5ccnc(OCc6ccccc6)c5)cc34)cc12` [Compound 6g [SU1349]], the inhibition at 1 µM was 5% at CK1δ(h); 0% at TAK1(h); 18% against MAPK1(h); 0% on PAK2(h); 36% at Aurora-A(h); 99% at CDK9/cyclin T1(h). Besides, the inhibition at 1 µM is 5% on HIPK1(h); 0% on mTOR(h); 37% against CaMKIIδ(h); 4% against MST2(h); 37% at CDK2/cyclinA(h); -14% against PDGFRβ(h). The inhibition at 1 µM is -5% against CHK2(h), -22% on ZAP-70(h), -4% against FGFR1(h) and -5% against AMPKα1(h).

As a reminder, the inhibition is the relative decrease from the control value, in per cent.
